Measurements taken from the supplement of paper PMC4862054.
Where “and” joins values, the source holds several entries; their conditions need not be identical. Identical values can stand only once. Each block holds one compound with its values, some of them ahead of it.

Columns and labels:
HDQ-P1 = experiment: normalised viability (% of control), CellTiter-Blue; higher = more viable cells (about 100 = DMSO control); settings: incubation time: 72 h
Outline: (§1)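 Seeded at 20 µl suspension per well onto compound-loaded 384-well plates, breast cancer cell lines were incubated 72 h. CellTiter-Blue fluorescence at 560/590 nm was then read, with each plate normalised to vehicle (100) and a positive kill control (0). Normalised viability is reported at a single listed concentration of the series.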

MDA-MB-453 [1] = experiment: as above; settings: incubation time: 72 h
Outline: as §1

DU-4475 [2] = experiment: as above; settings: incubation time: 72 h
Outline: as §1

CAL-51 [3] = experiment: as above; settings: incubation time: 72 h
Outline: as §1

CAL-85-1 [4] = experiment: as above; settings: incubation time: 72 h
Outline: as §1

CAL-148 [5] = experiment: as above; settings: incubation time: 72 h
Outline: as §1

MDA-MB-468 = settings: 72 h
Procedure: (§2)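 Drug sensitivity and resistance testing (DSRT) of breast cancer cell lines in 384-well plates, 5 concentrations in 10-fold dilutions over a compound-specific 10,000-fold range. After 72 h, cytotoxicity was read by CellTox Green fluorescence and viability by CellTiter-Glo luminescence (multiplexed), normalised to DMSO and benzethonium chloride controls. EC50 is the inflection point of the fitted dose-response curve (bottom asymptote free, so it can be relative for partial curves) and is censored at the highest tested concentration. Rows with DSS 0 (no meaningful response) were excluded.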

CAL-51 [6] = settings: 72 h
Procedure: as §2

CAL-85-1 [7] = settings: 72 h
Procedure: as §2

Hs578T = settings: 72 h
Procedure: as §2

CAL-51 [8] = settings: 72 h; remark: listed apart in the source
Outline: (§3)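 The reported EC50 was fitted from percent-inhibition dose-response curves and censored at the highest concentration. Breast cancer cell lines (20 µl suspension) were added to 384-well plates containing compound in 5 µl medium and incubated 72 h, and viability was read with 2.5 µl CellTiter-Blue over 2 h at 37 °C at 560/590 nm. Each plate was normalised to vehicle and a positive kill control and checked by Z'-factor, and rows with zero drug sensitivity score were dropped.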

CAL-85-1 [9] = settings: 72 h; remark: listed apart in the source
Outline: as §3

CAL-148 [10] = settings: 72 h
Outline: as §3

MDA-MB-453 [11] = settings: 72 h
Outline: as §3

DU-4475 [12] = settings: 72 h
Outline: as §3

BT-549 = settings: 72 h
Procedure: as §2

BT-474 = settings: 72 h
Procedure: as §2

SMILES: C/C(=C\c1csc(C)n1)[C@@H]1C[C@@H]2O[C@]2(C)CCC[C@H](C)[C@H](O)[C@@H](C)C(=O)C(C)(C)[C@@H](O)CC(=O)N1 [Ixabepilone] (1000 nM)
normalised viability (HDQ-P1): 37%
normalised viability (MDA-MB-453 [1]): 5.47%
normalised viability (DU-4475 [2]): 21.5%
normalised viability (CAL-51 [3]): 57.9%
normalised viability (CAL-85-1 [4]): 36.9%
normalised viability (CAL-148 [5]): 20.9%

SMILES: C=CCn1c(=O)c2cnc(Nc3ccc(N4CCN(C)CC4)cc3)nc2n1-c1cccc(C(C)(C)O)n1 [MK1775] (10000 nM)
normalised viability (HDQ-P1): 16%
normalised viability (MDA-MB-453 [1]): 15.2%
normalised viability (DU-4475 [2]): 2.68%
normalised viability (CAL-51 [3]): 2.98%
normalised viability (CAL-85-1 [4]): 17.4%
normalised viability (CAL-148 [5]): 5.88%

SMILES: CN(C)C(=N)NC(=N)N [Metformin]
EC50, CellTox Green (MDA-MB-468): 710 nM
EC50, CellTox Green (CAL-51 [6]): 100 nM

SMILES: CN(Cc1cnc2nc(N)nc(N)c2n1)c1ccc(C(=O)N[C@@H](CCC(=O)O)C(=O)O)cc1 [Methotrexate]
EC50, CellTox Green (CAL-85-1 [7]): > 50000 nM
EC50, CellTox Green (Hs578T): 11000 nM
EC50, CellTiter-Blue viability (CAL-51 [8]): 84.8 nM
EC50, CellTiter-Blue viability (CAL-85-1 [9]): 71.7 nM
EC50, CellTiter-Blue viability (CAL-148 [10]): 46.5 nM

EC50, CellTiter-Blue viability (MDA-MB-453 [11]): 7900 nM
SMILES: COc1c2occc2cc2ccc(=O)oc12 [Methoxsalen]
EC50, CellTiter-Blue viability (DU-4475 [12]): 6860 nM
EC50, CellTiter-Blue viability (CAL-85-1 [9]): 9050 nM
EC50, CellTiter-Blue viability (CAL-148 [10]): 6360 nM

EC50, CellTiter-Blue viability (MDA-MB-453 [11]): 92.3 nM
SMILES: CO[C@@H]1[C@H](N(C)C(=O)c2ccccc2)C[C@H]2O[C@]1(C)n1c3ccccc3c3c4c(c5c6ccccc6n2c5c31)C(=O)NC4 [Midostaurin]
EC50, CellTox Green (BT-549): 1060 nM
EC50, CellTox Green (MDA-MB-468): 384 nM
EC50, CellTox Green (CAL-51 [6]): 29.6 nM
EC50, CellTox Green (Hs578T): 997 nM
EC50, CellTiter-Blue viability (DU-4475 [12]): 451 nM
EC50, CellTiter-Blue viability (CAL-51 [8]): 182 nM
EC50, CellTiter-Blue viability (CAL-85-1 [9]): 314 nM

SMILES: CO[C@@H]1[C@H](N(C)C(=O)c2ccccc2)C[C@H]2O[C@]1(C)n1c3ccccc3c3c4c(c5c6ccccc6n2c5c31)C(=O)NC4 [Midostaurin] (10000 nM)
normalised viability (HDQ-P1): 80.1%
normalised viability (MDA-MB-453 [1]): 61.4%
normalised viability (DU-4475 [2]): 3.76%
normalised viability (CAL-51 [3]): 4.73%
normalised viability (CAL-85-1 [4]): 78.9%
normalised viability (CAL-148 [5]): 86.3%

EC50, CellTiter-Blue viability (MDA-MB-453 [11]): 3420 nM
SMILES: CO[C@@]12[C@H](COC(N)=O)C3=C(C(=O)C(C)=C(N)C3=O)N1C[C@@H]1N[C@@H]12 [Mitomycin C]
EC50, CellTox Green (MDA-MB-468): 27.6 nM
EC50, CellTox Green (CAL-51 [6]): 307 nM
EC50, CellTox Green (Hs578T): > 10000 nM
EC50, CellTiter-Blue viability (DU-4475 [12]): 5070 nM
EC50, CellTiter-Blue viability (CAL-51 [8]): 5790 nM
EC50, CellTiter-Blue viability (CAL-85-1 [9]): 3920 nM
EC50, CellTiter-Blue viability (CAL-148 [10]): 2940 nM

SMILES: CO[C@@]12[C@H](COC(N)=O)C3=C(C(=O)C(C)=C(N)C3=O)N1C[C@@H]1N[C@@H]12 [Mitomycin C] (10000 nM)
normalised viability (HDQ-P1): 42.6%
normalised viability (MDA-MB-453 [1]): 5.36%
normalised viability (DU-4475 [2]): -0.46%
normalised viability (CAL-51 [3]): 4.34%
normalised viability (CAL-85-1 [4]): 2.67%
normalised viability (CAL-148 [5]): 1.89%

EC50, CellTiter-Blue viability (MDA-MB-453 [11]): 15.3 nM
SMILES: CCNC(=O)c1noc(-c2cc(C(C)C)c(O)cc2O)c1-c1ccc(CN2CCOCC2)cc1 [NVP-AUY922]
EC50, CellTox Green (CAL-51 [6]): 74.6 nM
EC50, CellTox Green (CAL-85-1 [7]): 84.1 nM
EC50, CellTox Green (Hs578T): 247 nM
EC50, CellTox Green (BT-474): 219 nM
EC50, CellTiter-Blue viability (DU-4475 [12]): 15.9 nM
EC50, CellTiter-Blue viability (CAL-51 [8]): 22.2 nM
EC50, CellTiter-Blue viability (CAL-85-1 [9]): 18.8 nM
EC50, CellTiter-Blue viability (CAL-148 [10]): 19.4 nM

SMILES: CCNC(=O)c1noc(-c2cc(C(C)C)c(O)cc2O)c1-c1ccc(CN2CCOCC2)cc1 [NVP-AUY922] (1000 nM)
normalised viability (HDQ-P1): 32.7%
normalised viability (MDA-MB-453 [1]): 7.53%
normalised viability (DU-4475 [2]): 2.34%
normalised viability (CAL-51 [3]): 8.3%
normalised viability (CAL-85-1 [4]): 26.6%
normalised viability (CAL-148 [5]): 18.6%

SMILES: CC1(C)CCC(c2ccc(Cl)cc2)=C(CN2CCN(c3ccc(C(=O)NS(=O)(=O)c4ccc(N[C@H](CCN5CCOCC5)CSc5ccccc5)c(S(=O)(=O)C(F)(F)F)c4)cc3)CC2)C1 [Navitoclax]
EC50, CellTox Green (MDA-MB-468): 1740 nM
EC50, CellTox Green (CAL-51 [6]): 906 nM
EC50, CellTox Green (CAL-85-1 [7]): 517 nM
EC50, CellTox Green (BT-474): 1540 nM
EC50, CellTiter-Blue viability (DU-4475 [12]): 286 nM
EC50, CellTiter-Blue viability (CAL-148 [10]): 129 nM

SMILES: CC1(C)CCC(c2ccc(Cl)cc2)=C(CN2CCN(c3ccc(C(=O)NS(=O)(=O)c4ccc(N[C@H](CCN5CCOCC5)CSc5ccccc5)c(S(=O)(=O)C(F)(F)F)c4)cc3)CC2)C1 [Navitoclax] (10000 nM)
normalised viability (HDQ-P1): 60.2%
normalised viability (MDA-MB-453 [1]): 52.7%
normalised viability (DU-4475 [2]): 4.02%
normalised viability (CAL-51 [3]): 77%
normalised viability (CAL-85-1 [4]): 71.3%
normalised viability (CAL-148 [5]): 66.7%

SMILES: Cc1cn(-c2cc(NC(=O)c3ccc(C)c(Nc4nccc(-c5cccnc5)n4)c3)cc(C(F)(F)F)c2)cn1 [Nilotinib]
EC50, CellTox Green (Hs578T): > 10000 nM

SMILES: Cc1cn(-c2cc(NC(=O)c3ccc(C)c(Nc4nccc(-c5cccnc5)n4)c3)cc(C(F)(F)F)c2)cn1 [Nilotinib] (10000 nM)
normalised viability (HDQ-P1): 84.2% and 86.2%
normalised viability (MDA-MB-453 [1]): 106% and 94.7%
normalised viability (DU-4475 [2]): 102% and 86.8%
normalised viability (CAL-51 [3]): 103% and 100%
normalised viability (CAL-85-1 [4]): 86.3% and 84.9%
normalised viability (CAL-148 [5]): 89.7% and 84.6%

SMILES: O=[N+]([O-])c1ccc2c(c1)S(=O)(=O)C=C2 [Stattic]
EC50, CellTox Green (BT-549): 1070 nM
EC50, CellTox Green (MDA-MB-468): 1130 nM
EC50, CellTox Green (CAL-51 [6]): 1390 nM
EC50, CellTox Green (CAL-85-1 [7]): 1110 nM
EC50, CellTox Green (Hs578T): 1710 nM
EC50, CellTox Green (BT-474): 1890 nM

SMILES: CC(C)n1cnc2c(NCCc3ccc(O)cc3)nc(-c3csc4ccccc34)nc21 [StemRegenin 1]
EC50, CellTox Green (BT-474): > 10000 nM

EC50, CellTiter-Blue viability (MDA-MB-453 [11]): 960 nM
SMILES: O=C(CCCCCCC(=O)Nc1ccccc1)NO [Vorinostat]
EC50, CellTox Green (BT-549): > 10000 nM
EC50, CellTox Green (MDA-MB-468): 6570 nM
EC50, CellTox Green (CAL-51 [6]): 2660 nM
EC50, CellTox Green (Hs578T): 948 nM
EC50, CellTox Green (BT-474): 6410 nM
EC50, CellTiter-Blue viability (DU-4475 [12]): 9000 nM
EC50, CellTiter-Blue viability (CAL-85-1 [9]): 3890 nM
EC50, CellTiter-Blue viability (CAL-148 [10]): 3250 nM

SMILES: O=C(CCCCCCC(=O)Nc1ccccc1)NO [Vorinostat] (10000 nM)
normalised viability (HDQ-P1): 51.6% and 62.6%
normalised viability (MDA-MB-453 [1]): 3.12% and 2.8%
normalised viability (DU-4475 [2]): 50.1% and 46.5%
normalised viability (CAL-51 [3]): 59.7% and 50.3%
normalised viability (CAL-85-1 [4]): 30.1% and 32.4%
normalised viability (CAL-148 [5]): 13.3% and 16%
